Molecular target: T1, XylR (Mycolicibacterium smegmatis, UniProt A0R508)
T1 construct: gene MSMEG_6022
T1 sequence (A0R508 1-393): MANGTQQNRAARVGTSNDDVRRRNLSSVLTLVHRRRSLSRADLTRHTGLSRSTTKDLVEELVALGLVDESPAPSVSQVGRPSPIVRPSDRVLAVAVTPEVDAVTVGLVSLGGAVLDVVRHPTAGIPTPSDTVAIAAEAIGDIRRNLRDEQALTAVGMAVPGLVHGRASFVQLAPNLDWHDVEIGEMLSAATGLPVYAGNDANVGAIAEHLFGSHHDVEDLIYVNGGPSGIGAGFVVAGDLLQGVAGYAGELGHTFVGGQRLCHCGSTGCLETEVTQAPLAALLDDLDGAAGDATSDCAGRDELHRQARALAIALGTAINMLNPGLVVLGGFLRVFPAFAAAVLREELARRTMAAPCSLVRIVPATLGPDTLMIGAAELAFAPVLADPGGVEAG
Experiment: isothermal titration calorimetry
Assay type: binding
Conditions: 20 mM Tris-base, 100 mM NaCl, 5 mM MgCl2, pH 7.5; 35 μM XylR; independent-site model, n = 1.09 ± 0.04

- Kd: 4.72 ± 0.6 µM
SMILES: OC1OC[C@@H](O)[C@H](O)[C@H]1O (stereo partly drawn) [D-xylose]

Reference: paper PMC10138657, “D-Xylose Blocks the Broad Negative Regulation of XylR on Lipid Metabolism and Affects Multiple Physiological Characteristics in Mycobacteria” (International Journal of Molecular Sciences, 2023)
